In publication PMC11039730, “In situ captured antibacterial action of membrane-incising peptide lamellae” (Nature Communications, 2024):
Converted amounts (≈) assume the structure as drawn. Read-outs that look alike come from different tables or passages of the source.

Experiments:
[1] = system: BL21 DE3 Escherichia coli strain; type: cell-based
Procedure: To investigate the antimicrobial effect of lamellin-2K and lamellin-3K, we used the BL21 DE3 Escherichia coli strain with chromosomal resistance to chloramphenicol. The inoculum was grown overnight in the presence of 30 μM chloramphenicol. 0.5 mL of this inoculum was diluted into 50 mL fresh LB medium and grown till the optical density at 600 nm reached 0.5−0.6 indicating an exponential growth phase. Cells were then centrifuged at 3220 g at 4 °C for 20 min, washed twice in the assay medium (MQ water, 10 mM PBS, or 0.15 mM NaCl), then resuspended in 5 mL of the same medium. 10 μL cell suspension was diluted with the peptide solution to a final concentration of 250 μM, 125 μM, 60 μM, 30 μM, 10 μM, 5 μM, 1 μM and 0 μM (control) in 100 μl volume and incubated for 2 h in sterile, low-bind, U-bottom 96-well microplates (Greiner Bio-One, Hungary) with oxygen penetrating lid at 37 °C, at continuous shaking in a BioTek Synergy Mx plate reader. Aliquots from the wells were taken for the quantification of bacterial viability on LB agar plates after incubation at 37 °C for 16 h to obtain CFU/mL data. Treatments were performed in three biological replicates, each of which in three technical replicates.
Supplementary Figure 26: Antibacterial activity of 2K and 3K in the presence and absence of phosphate ions. a) Growth inhibition curves. Exponentially growing E. coli BL21 shaker cultures were exposed to the peptides at 37 °C in various media for 120 min. Treatments were performed in three biological replicates, each of which in three technical replicates. Data represent mean and error bars represent SEM. Data points are connected to guide the eye. b) Viability curves calculated from growth inhibition data in (a). Smooth lines are sigmoid fits to […]
Supplementary Table 6: Antimicrobial activity of 2K and 3K in various media. […]
* IC values are calculated from sigmoid fits to the viability vs. log(c) data points.
All errors are standard errors. […]

[2] = ANS binding fluorescence (assembly formation); type: physicochemical; settings: 125 μM peptide, 2.5 μM ANS, mean of 3
Procedure: Fluorescence spectra were recorded using a JASCO FP-8500 spectrofluorometer with an excitation and emission bandwidth of 10 nm and 20 nm, respectively. Three accumulations were measured each time. The 8-anilino-1-naphthalenesulfonic acid (ANS) fluorophore was excited at 388 nm and the emission was recorded from 410 to 600 nm. Binding assays were performed using 125 μM peptide (50 μL) and 2.5 μM ANS. Spectra were corrected for those of the corresponding peptide solutions. page 11: Supplementary Figure 8: ANS binding capacity is higher for 3K and in phosphate media. ANS binding of 2K and 3K (125 μM) were tested in the indicated media using the ANS probe at 2.5 μM. The emission intensities at the maxima were read, and values were normalized for that of unbound ANS. Gray line highlights the reference signal of free ANS. In all tested media, higher ANS binding was detected for 3K over 2K. […] Error bars represent the standard deviation of the mean for three independent experiment sets. 11 (1 picture or pasted object on this page, not shown here)

[3] = system: MonoMac 6 human monocytic cells; type: cell-based; settings: 2 h, AlamarBlue, mean ± SEM, n = 4
Procedure: To evaluate the cytotoxicity of the compounds, AlamarBlue viability assay was performed on MonoMac 6 human monocytic cells (DSMZ no.: ACC 124, Braunschweig, Germany). […] Cells were maintained as an adherent culture in RPMI-1640 media (Lonza, Basel), supplemented with 10% FCS, L-glutamine (2 mM) and penicillin/streptomycin (50 IU/mL and 50 μg/mL) at 37 °C in a humidified atmosphere containing 5% CO2. On the day of the experiment, cells were washed twice with serum-free RPMI or with TRIS-HCl buffer (0.1 M, pH = 7.4) and plated in 96-well flat-bottom tissue culture plates (Sarstedt) (20,000 cells). 250 μM of the lamellin-3K was dissolved and serially diluted (125 μM, 62.5 μM, 31.25 μM, 15.63 μM, 7.81 μM, 3.91 μM, 1.95 μM) in the corresponding assay medium and added to the cells. The final concentration range was between 1.95 and 250 μM and the final volume was 100 μL. […] Following a 2 h of incubation, the fluorescence was measured at λEx = 530/30 and λEm = 610/10 nm using a Synergy H4 multi-mode microplate reader (BioTek). The percent of viability was calculated compared to untreated control wells. […] IC50 values were calculated from the dose-response curves, after fitting with sigmoidal funcion using the GraphPad Prism software package. […]
parallel experiments and error bars represent SEM. The viability percentage was calculated relative to the untreated […]

physchem = type: physicochemical; settings: aqueous buffer
Procedure: For assignment purposes, appropriate amounts of lyophilized solid lamellin-2K (or lamellin-3K, respectively) were dissolved in H2O to prepare ~1 mM solutions, followed by 15 min sonication and addition of 10% D2O. For monitoring the effects of different solvents, the lyophilized lamellin-2K and lamellin-3K were dissolved in PBS, sonicated for 30 min, further on 10% D2O was added. For 2K, the concentration of the lamellin was ~250 μM and the solution contained PBS. […] After each addition, the solution was sonicated for 30 min. All samples were measured at 298 K. […]
Supplementary Figure 7: a) and b) Overlay of 1D 1H spectra in water (c = 1 mM, dark colour) and in PBS (light colour) for 2K (green) and 3K (blue), respectively. Concentration in PBS was ~ 250 µM for 2K and ~ 20 µM for 3K. c) and d) Regions of overlaid 1H-1H TOCSY (green) and 1H-1H ROESY (red) for 2K, indicating sequential connectivities. e) Variation of the 3K concentration during PBS titration determined from the integration of leucine […]

[4] = 10 mM PBS, 2 h at 37 °C, CFU on LB agar, sigmoid fit, ± standard error, 3 biological replicates
[5] = NaCl (0.15 mM [sic] NaCl), 2 h at 37 °C, CFU on LB agar, sigmoid fit, ± standard error, 3 biological replicates

`CCCC(=O)N[C@H](CC(=O)N[C@@H](CC(=O)N[C@@H](CCCCN)CC(=O)N[C@@H](CC(=O)N[C@@H](CCCCN)CC(=O)N[C@@H](CC(N)=O)CC(C)C)CC(C)C)CC(C)C)CC(C)C` [2K] showed an IC20 [1, 4] of 46.1 ± 4.07 µM, an IC80 [1, 4] of 77.7 ± 3.93 µM and an IC80 ([1]; MQ water, 2 h at 37 °C, CFU on LB agar, sigmoid fit to viability vs log(c), ± standard error, 3 biological replicates) of 11.2 ± 0.373 µM. It also gave an IC20 ([1]; MQ water, 2 h at 37 °C, CFU on LB agar, sigmoid fit, ± standard error, 3 biological replicates) of 7.06 ± 0.343 µM, an IC20 [1, 5] of 54 ± 12.2 µM and an IC80 [1, 5] of 74.2 ± 10.8 µM. For the same compound, the “ANS fluorescence, Mean” value ([2]; H2O) was 1.52 arb. units, the “ANS fluorescence, Mean” value ([2]; NaCl) was 1.24 arb. units and the “ANS fluorescence, Mean” value ([2]; PBS) was 5.15 arb. units. The “ANS fluorescence, Mean” value ([2]; phosphate) was 11.66 arb. units.
Compound `CCCC(=O)N[C@H](CC(=O)N[C@@H](CC(=O)N[C@@H](CCCCN)CC(=O)N[C@@H](CC(=O)N[C@@H](CCCCN)CC(=O)N[C@@H](CC(=O)N[C@@H](CCCCN)CC(=O)N[C@@H](CC(N)=O)CC(C)C)CC(C)C)CC(C)C)CC(C)C)CC(C)C` [3K] has an IC50 ([3]; RPMI (phosphate-containing, 5.6 mM Na2HPO4)) of 126 ± 7.1 µM, an IC50 ([3]; Tris-HCl (phosphate-free, 0.1 M, pH 7.4)) of 112 ± 8.4 µM and a solubility thermodynamic at 30 min (physchem) of roughly 20 µM (≈ 23 µg/mL). It also gave an IC20 [1, 4] of 9.27 ± 1.45 µM, an IC80 [1, 4] of 14.6 ± 1.46 µM and an IC50 ([1]; 10 mM PBS, 2 h at 37 °C, CFU on LB agar, sigmoid fit, ± standard error, 3 biological replicates, read-out: IC50) of 11.6 ± 1.5 µM. For the same compound, the IC50 ([1]; BL21, 2 h) was 5.44 ± 0.91 µM, the IC50 ([1]; MQ water (phosphate-free), 2 h at 37 °C, CFU on LB agar, sigmoid fit, ± standard error, 3 biological replicates, read-out: IC50) was 1.24 µM and the IC20 [1, 5] was 4.22 ± 0.82 µM. The IC80 [1, 5] was 7 ± 1.02 µM, the “ANS fluorescence, Mean” value ([2]; H2O) was 3.21 arb. units and the “ANS fluorescence, Mean” value ([2]; NaCl) was 7.78 arb. units. The “ANS fluorescence, Mean” value ([2]; PBS) was 14.27 arb. units and the “ANS fluorescence, Mean” value ([2]; phosphate) was 19.27 arb. units.
